Data published in ChEMBL document CHEMBL3885861, “Open TG-GATES”.

Organism: Rattus norvegicus
Assay: Open TG-GATES - Regimen: Daily Repeat
Format: toxicity, organism-based, Sprague-Dawley
Design: regimen Daily Repeat, gender Male, age 6 weeks
Conditions: in vivo, po, route gavage; for APTT / Bas / Eos / Fbg / Hb / Ht / Lym / MCH / MCHC / MCV / Mono / Neu / PT / Plat / RBC / Ret / WBC: tissue Blood; for KIDNEY_L / KIDNEY_R / KIDNEY_TOTAL: tissue Kidney; for LIVER: tissue Liver; for A/G / ALP / ALT / AST / BUN / CRE / Ca / Cl / DBIL / GLC / IP / K / LDH / Na / PL / RALB / TBIL / TC / TG / TP / gamma-GTP: tissue Plasma
[1] = 100 mg/kg, 72 h, dose level Middle, time 3 day
[2] = 100 mg/kg, […], dose level Middle, time 7 day
[3] = 100 mg/kg, […], dose level Middle, time 14 day
[4] = 100 mg/kg, […], dose level Middle, time 28 day
[5] = 300 mg/kg, 72 h, dose level High, time 3 day
[6] = 300 mg/kg, […], dose level High, time 7 day
[7] = 300 mg/kg, […], dose level High, time 14 day
[8] = 300 mg/kg, […], dose level High, time 28 day

Clc1c(Cl)c(Cl)c(Cl)c(Cl)c1Cl [PERCHLOROBENZENE]
TERMINAL_BW [1]: 223.3 g
APTT [1]: 15.9 s
Bas [1]: 0%
Eos [1]: 1.2%
Fbg [1]: 221.4 mg/dL
Hb [1]: 14.1 g/dL
Ht [1]: 42.1%
Lym [1]: 73.2%
MCH [1]: 21.7 pg
MCHC [1]: 33.5%
MCV [1]: 64.8 fL
Mono [1]: 7.4%
Neu [1]: 18.2%
PT [1]: 11.2 s
Plat [1]: 104.2 x10_4/uL
RBC [1]: 650.6 x10_4/ul
Ret [1]: 7.5%
WBC [1]: 113.8 x10_2/uL
KIDNEY_L [1]: 1 g
KIDNEY_R [1]: 1 g
KIDNEY_TOTAL [1]: 2 g
LIVER [1]: 13.1 g
A/G [1]: 1.8
ALP [1]: 823 IU/L
ALT [1]: 43.4 IU/L
AST [1]: 65.8 IU/L
BUN [1]: 16 mg/dL
CRE [1]: 0.5 mg/dL
Ca [1]: 10.6 mg/dL
Cl [1]: 106.2 meq/L
DBIL [1]: 0.006 mg/dL
GLC [1]: 194.8 mg/dL
IP [1]: 8.7 mg/dL
K [1]: 5.2 meq/L
LDH [1]: 121.4 IU/L
Na [1]: 139 meq/L
PL [1]: 168 mg/dL
RALB [1]: 3.7 g/dL
TBIL [1]: 0.4 mg/dL
TC [1]: 91.8 mg/dL
TG [1]: 162.4 mg/dL
TP [1]: 5.8 g/dL
gamma-GTP [1]: 1.6 IU/L
TERMINAL_BW [2]: 265.6 g
TERMINAL_BW [3]: 308.5 g
TERMINAL_BW [4]: 338.7 g
APTT [2]: 17.2 s
Bas [2]: 0%
Eos [2]: 1.2%
Fbg [2]: 238.8 mg/dL
Hb [2]: 14.5 g/dL
Ht [2]: 43.3%
Lym [2]: 64.2%
MCH [2]: 21.3 pg
MCHC [2]: 33.4%
MCV [2]: 63.7 fL
Mono [2]: 14.4%
Neu [2]: 20.4%
PT [2]: 11.7 s
Plat [2]: 115.6 x10_4/uL
RBC [2]: 680.8 x10_4/ul
Ret [2]: 5.7%
WBC [2]: 104 x10_2/uL
APTT [3]: 19.7 s
Bas [3]: 0%
Eos [3]: 1%
Fbg [3]: 263.2 mg/dL
Hb [3]: 14.5 g/dL
Ht [3]: 43.3%
Lym [3]: 77.6%
MCH [3]: 20.9 pg
MCHC [3]: 33.6%
MCV [3]: 62.3 fL
Mono [3]: 8%
Neu [3]: 13.6%
PT [3]: 12.2 s
Plat [3]: 117.2 x10_4/uL
RBC [3]: 695 x10_4/ul
Ret [3]: 4.6%
WBC [3]: 156.2 x10_2/uL
APTT [4]: 23.8 s
Bas [4]: 0%
Eos [4]: 2.2%
Fbg [4]: 320.6 mg/dL
Hb [4]: 15.3 g/dL
Ht [4]: 46%
Lym [4]: 65%
MCH [4]: 19.7 pg
MCHC [4]: 33.2%
MCV [4]: 59.4 fL
Mono [4]: 15.4%
Neu [4]: 17.8%
PT [4]: 15.8 s
Plat [4]: 100.2 x10_4/uL
RBC [4]: 774.8 x10_4/ul
Ret [4]: 3%
WBC [4]: 182.8 x10_2/uL
KIDNEY_L [2]: 1.2 g
KIDNEY_R [2]: 1.2 g
KIDNEY_TOTAL [2]: 2.3 g
KIDNEY_L [3]: 1.3 g
KIDNEY_R [3]: 1.3 g
KIDNEY_TOTAL [3]: 2.5 g
KIDNEY_L [4]: 1.5 g
KIDNEY_R [4]: 1.5 g
KIDNEY_TOTAL [4]: 2.9 g
LIVER [2]: 17.2 g
LIVER [3]: 21.6 g
LIVER [4]: 29.5 g
A/G [2]: 1.9
ALP [2]: 631.4 IU/L
ALT [2]: 33 IU/L
AST [2]: 59.2 IU/L
BUN [2]: 17.2 mg/dL
CRE [2]: 0.7 mg/dL
Ca [2]: 10.7 mg/dL
Cl [2]: 104.2 meq/L
DBIL [2]: 0.01 mg/dL
GLC [2]: 179.8 mg/dL
IP [2]: 7.9 mg/dL
K [2]: 4.9 meq/L
LDH [2]: 127.8 IU/L
Na [2]: 137.8 meq/L
PL [2]: 191.6 mg/dL
RALB [2]: 3.9 g/dL
TBIL [2]: 0.5 mg/dL
TC [2]: 112.4 mg/dL
TG [2]: 151.6 mg/dL
TP [2]: 6.1 g/dL
gamma-GTP [2]: 1.8 IU/L
A/G [3]: 2
ALP [3]: 470.8 IU/L
ALT [3]: 30.2 IU/L
AST [3]: 54.2 IU/L
BUN [3]: 17 mg/dL
CRE [3]: 0.6 mg/dL
Ca [3]: 10.4 mg/dL
Cl [3]: 106.6 meq/L
DBIL [3]: 0.014 mg/dL
GLC [3]: 171.2 mg/dL
IP [3]: 7.8 mg/dL
K [3]: 4.9 meq/L
LDH [3]: 102.2 IU/L
Na [3]: 140.2 meq/L
PL [3]: 192.6 mg/dL
RALB [3]: 4.4 g/dL
TBIL [3]: 0.5 mg/dL
TC [3]: 115.2 mg/dL
TG [3]: 145.2 mg/dL
TP [3]: 6.6 g/dL
gamma-GTP [3]: 2.8 IU/L
A/G [4]: 1.6
ALP [4]: 316.6 IU/L
ALT [4]: 50.4 IU/L
AST [4]: 48.8 IU/L
BUN [4]: 21.8 mg/dL
CRE [4]: 0.7 mg/dL
Ca [4]: 11.2 mg/dL
Cl [4]: 105.6 meq/L
DBIL [4]: 0.014 mg/dL
GLC [4]: 159.6 mg/dL
IP [4]: 9.2 mg/dL
K [4]: 5.3 meq/L
LDH [4]: 157.4 IU/L
Na [4]: 143.4 meq/L
PL [4]: 193 mg/dL
RALB [4]: 4.6 g/dL
TBIL [4]: 0.3 mg/dL
TC [4]: 120.2 mg/dL
TG [4]: 116.2 mg/dL
TP [4]: 7.6 g/dL
gamma-GTP [4]: 11.4 IU/L
TERMINAL_BW [5]: 226 g
APTT [5]: 15.9 s
Bas [5]: 0%
Eos [5]: 1.2%
Fbg [5]: 225.4 mg/dL
Hb [5]: 14.3 g/dL
Ht [5]: 42.9%
Lym [5]: 71.2%
MCH [5]: 21.6 pg
MCHC [5]: 33.2%
MCV [5]: 65.2 fL
Mono [5]: 10.6%
Neu [5]: 16.8%
PT [5]: 11 s
Plat [5]: 98.4 x10_4/uL
RBC [5]: 658.8 x10_4/ul
Ret [5]: 8%
WBC [5]: 106.3 x10_2/uL
KIDNEY_L [5]: 1 g
KIDNEY_R [5]: 1 g
KIDNEY_TOTAL [5]: 2 g
LIVER [5]: 13.7 g
A/G [5]: 2.1
ALP [5]: 720.6 IU/L
ALT [5]: 41 IU/L
AST [5]: 64.8 IU/L
BUN [5]: 15 mg/dL
CRE [5]: 0.6 mg/dL
Ca [5]: 10.7 mg/dL
Cl [5]: 105.8 meq/L
DBIL [5]: 0.002 mg/dL
GLC [5]: 184 mg/dL
IP [5]: 8.3 mg/dL
K [5]: 5.1 meq/L
LDH [5]: 186 IU/L
Na [5]: 138.8 meq/L
PL [5]: 165.8 mg/dL
RALB [5]: 3.9 g/dL
TBIL [5]: 0.5 mg/dL
TC [5]: 92.2 mg/dL
TG [5]: 160.4 mg/dL
TP [5]: 5.7 g/dL
gamma-GTP [5]: 1.4 IU/L
TERMINAL_BW [6]: 262.7 g
TERMINAL_BW [7]: 310.5 g
TERMINAL_BW [8]: 358.3 g
APTT [6]: 16.1 s
Bas [6]: 0%
Eos [6]: 1%
Fbg [6]: 255.6 mg/dL
Hb [6]: 14.2 g/dL
Ht [6]: 43.1%
Lym [6]: 71.2%
MCH [6]: 21.5 pg
MCHC [6]: 33%
MCV [6]: 65 fL
Mono [6]: 9.4%
Neu [6]: 18.4%
PT [6]: 11.2 s
Plat [6]: 115 x10_4/uL
RBC [6]: 662 x10_4/ul
Ret [6]: 6.3%
WBC [6]: 117.1 x10_2/uL
APTT [7]: 20.8 s
Bas [7]: 0%
Eos [7]: 1.2%
Fbg [7]: 280.2 mg/dL
Hb [7]: 13.9 g/dL
Ht [7]: 41.6%
Lym [7]: 67.8%
MCH [7]: 20.7 pg
MCHC [7]: 33.3%
MCV [7]: 62.1 fL
Mono [7]: 14.8%
Neu [7]: 16.4%
PT [7]: 12.7 s
Plat [7]: 120.7 x10_4/uL
RBC [7]: 669.4 x10_4/ul
Ret [7]: 4.2%
WBC [7]: 140.9 x10_2/uL
APTT [8]: 22.1 s
Bas [8]: 0%
Eos [8]: 1.8%
Fbg [8]: 305.4 mg/dL
Hb [8]: 15.1 g/dL
Ht [8]: 45.5%
Lym [8]: 73.2%
MCH [8]: 19.4 pg
MCHC [8]: 33.2%
MCV [8]: 58.4 fL
Mono [8]: 11.8%
Neu [8]: 13.4%
PT [8]: 14 s
Plat [8]: 92 x10_4/uL
RBC [8]: 779.6 x10_4/ul
Ret [8]: 2.9%
WBC [8]: 161.2 x10_2/uL
KIDNEY_L [6]: 1.2 g
KIDNEY_R [6]: 1.3 g
KIDNEY_TOTAL [6]: 2.5 g
KIDNEY_L [7]: 1.4 g
KIDNEY_R [7]: 1.3 g
KIDNEY_TOTAL [7]: 2.7 g
KIDNEY_L [8]: 1.6 g
KIDNEY_R [8]: 1.6 g
KIDNEY_TOTAL [8]: 3.3 g
LIVER [6]: 18.4 g
LIVER [7]: 24.3 g
LIVER [8]: 31 g
A/G [6]: 2.1
ALP [6]: 604.6 IU/L
ALT [6]: 35.6 IU/L
AST [6]: 55.4 IU/L
BUN [6]: 15.8 mg/dL
CRE [6]: 0.7 mg/dL
Ca [6]: 10.9 mg/dL
Cl [6]: 104.4 meq/L
DBIL [6]: 0.01 mg/dL
GLC [6]: 173.4 mg/dL
IP [6]: 8.9 mg/dL
K [6]: 4.7 meq/L
LDH [6]: 178.4 IU/L
Na [6]: 138.8 meq/L
PL [6]: 205.8 mg/dL
RALB [6]: 4.2 g/dL
TBIL [6]: 0.4 mg/dL
TC [6]: 124.6 mg/dL
TG [6]: 147.2 mg/dL
TP [6]: 6.2 g/dL
gamma-GTP [6]: 2.6 IU/L
A/G [7]: 2
ALP [7]: 379.8 IU/L
ALT [7]: 32.8 IU/L
AST [7]: 51.6 IU/L
BUN [7]: 17.2 mg/dL
CRE [7]: 0.6 mg/dL
Ca [7]: 10.6 mg/dL
Cl [7]: 107.4 meq/L
DBIL [7]: 0.01 mg/dL
GLC [7]: 165.6 mg/dL
IP [7]: 8 mg/dL
K [7]: 4.6 meq/L
LDH [7]: 199.6 IU/L
Na [7]: 140.4 meq/L
PL [7]: 199.6 mg/dL
RALB [7]: 4.4 g/dL
TBIL [7]: 0.4 mg/dL
TC [7]: 124 mg/dL
TG [7]: 144.4 mg/dL
TP [7]: 6.8 g/dL
gamma-GTP [7]: 4 IU/L
A/G [8]: 1.8
ALP [8]: 213.2 IU/L
ALT [8]: 41.6 IU/L
AST [8]: 43.8 IU/L
BUN [8]: 19.2 mg/dL
CRE [8]: 0.7 mg/dL
Ca [8]: 10.8 mg/dL
Cl [8]: 105.4 meq/L
DBIL [8]: 0.038 mg/dL
GLC [8]: 151 mg/dL
IP [8]: 8.4 mg/dL
K [8]: 5 meq/L
LDH [8]: 163.2 IU/L
Na [8]: 143 meq/L
PL [8]: 175 mg/dL
RALB [8]: 4.7 g/dL
TBIL [8]: 0.3 mg/dL
TC [8]: 107.6 mg/dL
TG [8]: 174 mg/dL
TP [8]: 7.3 g/dL
gamma-GTP [8]: 7.8 IU/L
